Source: PubChem BioAssay AID602328 (NMMLSC, 2012)
Calls of active or inactive are those of the source. How the calls were made is not given here.

Biological target: Botulinum neurotoxin type A (Clostridium botulinum (strain Hall / ATCC 3502 / NCTC 13319 / Type A)) (UniProt P0DPI1)
Assay: BoNT/A light chain protease inhibitors, dose response, biochemical, multiplex microsphere flow cytometry, cherry pick 02 (AID 602328)
Conditions: BoNT/A LC substrate cleavage

Chain of Botulinum neurotoxin type A (Clostridium botulinum (strain Hall / ATCC 3502 / NCTC 13319 / Type A)) (P0DPI1 whole entry, looked up): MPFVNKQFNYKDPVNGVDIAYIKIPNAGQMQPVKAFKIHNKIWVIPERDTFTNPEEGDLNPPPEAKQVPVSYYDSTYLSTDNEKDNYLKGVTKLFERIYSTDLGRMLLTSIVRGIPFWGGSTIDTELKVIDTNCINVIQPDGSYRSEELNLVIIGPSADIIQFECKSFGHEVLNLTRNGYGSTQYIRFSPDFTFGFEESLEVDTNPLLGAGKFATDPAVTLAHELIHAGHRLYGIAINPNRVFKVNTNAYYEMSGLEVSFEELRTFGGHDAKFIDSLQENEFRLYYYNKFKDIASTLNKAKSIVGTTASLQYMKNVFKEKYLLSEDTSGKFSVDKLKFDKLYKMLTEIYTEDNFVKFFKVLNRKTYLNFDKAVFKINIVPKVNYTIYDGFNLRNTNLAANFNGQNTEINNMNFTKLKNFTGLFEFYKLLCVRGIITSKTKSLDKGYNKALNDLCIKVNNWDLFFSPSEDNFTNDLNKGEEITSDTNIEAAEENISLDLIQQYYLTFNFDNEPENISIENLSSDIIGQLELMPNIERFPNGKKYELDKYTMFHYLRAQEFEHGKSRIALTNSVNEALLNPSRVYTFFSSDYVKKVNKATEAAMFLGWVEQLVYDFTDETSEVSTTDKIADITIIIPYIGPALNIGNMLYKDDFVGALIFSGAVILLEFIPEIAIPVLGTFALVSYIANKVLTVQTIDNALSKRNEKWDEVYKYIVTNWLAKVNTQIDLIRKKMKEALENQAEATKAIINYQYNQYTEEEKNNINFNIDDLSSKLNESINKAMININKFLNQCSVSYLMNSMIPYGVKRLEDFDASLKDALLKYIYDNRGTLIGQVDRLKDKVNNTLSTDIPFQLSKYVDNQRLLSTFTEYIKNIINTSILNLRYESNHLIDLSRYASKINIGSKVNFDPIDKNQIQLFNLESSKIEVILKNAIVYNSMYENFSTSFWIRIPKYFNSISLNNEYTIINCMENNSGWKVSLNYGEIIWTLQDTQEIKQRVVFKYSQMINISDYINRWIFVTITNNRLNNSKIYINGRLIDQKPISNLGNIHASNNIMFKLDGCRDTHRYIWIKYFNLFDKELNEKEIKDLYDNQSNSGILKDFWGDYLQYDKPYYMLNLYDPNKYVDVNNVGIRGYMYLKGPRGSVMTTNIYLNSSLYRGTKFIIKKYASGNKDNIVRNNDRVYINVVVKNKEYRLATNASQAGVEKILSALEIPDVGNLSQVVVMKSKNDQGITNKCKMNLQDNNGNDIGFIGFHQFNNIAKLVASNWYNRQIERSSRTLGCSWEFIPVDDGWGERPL

Compound	IC50
Oc1[nH]c(N=C2N=c3ccccc3=N2)c2ccccc12	> 20 µM (inactive)
O=c1c(/C=C(\O)c2ccccc2)nc2ccccc2n1-c1ccccc1	> 20 µM (inactive)
